Test results from patent US8729048B2, “Methods and materials for assessing responsiveness to PARP inhibitors and platinating agents” (Mayo Foundation for Medical Education and Research, priority 2011, dated 2014).
“Also recorded” adds a separate entry of the source.

Assays:
Type in all cases: cell-based
[1] = tested on: MMEJ activity in PEO1 cells; assay: Microhomology mediated end-joining assay (MMEJ), PEO1; settings: 72 hours
Excerpt: FIG. 11. PARP inhibition fails to induce microhomology-mediated end-joining (MMEJ). (A) Schematic of the reporter substrate used to assay for MMEJ activity. Cleavage of pDVG94 with EcoRV and AfeI creates a blunt-ended linearized substrate, with identical 6-bp ends. Direct joining by NHEJ will result in maintenance of both repeats, but MMEJ will excise one repeat, introducing a new BstXI site. PCR across recircularized substrate produces a product of 180 bp, which can be cut into 120 and 60 bp fragments if the BstXI site was created. This figure is adapted from a figure provided elsewhere (Verkaik et al., Eur. J. Immunol., 32:701-709 (2002)). (B) and (C) Agarose gel from a representative MMEJ assay. PEO1 (B, lanes 1-10) and PEO4 (C) cells were treated with increasing concentrations of ABT-888 following transfection with linearized pDVG94. The size of the initial PCR product (180 bp) as well as BstXI cleaved products (120 bp and 60 bp) are indicated. As a positive and negative control, a cell line previously documented to undergo MMEJ (Lou et al., J. Biol. Chem., 279:46359-46362 (2004)), M059J (B, lanes 11 and 12), and a MMEJ-negative line, M059J+DNA-PKcs (B, lanes 13 and 14) were used. Images were captured from one gel and cut to create two panels. […]

[2] = tested on: NHEJ activity in PEO1 cells; assay: NHEJ end-joining reporter assay, PEO1; settings: 72 hours
Excerpt: FIG. 3. Error-prone NHEJ activity is enhanced by PARP inhibitors in PEO1 cells. (A) Schematic of the in vivo NHEJ assay. Pem1-Ad2-EGFP is an EGFP-containing vector with a 2.4 kb intron (Pem1) and one exon (Ad2) inserted into the EGFP cassette. Pem1-Ad2-EGFP was cut with either HindIII or I-SceI to produce linearized substrate with compatible overhangs or incompatible inverted overhangs, respectively. Successfully recircularized plasmid will produce intact EGFP, which can be assayed via flow cytometry. Any residual uncut plasmid, due to the insertion of the Ad2 exon within the EGFP open reading frame, will be EGFP negative. A pCherry plasmid was co-transfected with substrate to correct for transfection efficiency. (B) and (C) Quantitation of NHEJ activity in PEO1 and PEO4 cells transfected with HindIII substrate (B) or I-SceI substrate (C) and exposed to ABT-888 for 72 hours. Each data point represents the mean±SEM from 3 independent experiments.
The end-joining reporter plasmid pEGFP-Pem1-Ad2 described elsewhere (Wang et al., Nucleic Acids Res., 34:6170-6182 (2006); Seluanov et al., Proc. Natl. Acad. Sci. USA, 101:7624-7629 (2004); and Fattah et al., PLoS Genet., 6:e1000855 (2010); see also (FIG. 3A)) was provided by E. Hendrickson (University of Minnesota, Minneapolis, Minn.) and was digested with either HindIII or I-SceI for 12 hours, and gel purified using a Qiagen gel extraction kit. […]

[3] = tested on: HPRT locus in BRCA2-mutant CAPAN1 cells; assay: HPRT mutagenesis assay; settings: 250 nM DNA-PKi, 72 hours
Method: FIG. 4. PARP inhibitor-induced chromosomal derangement and genomic instability is dependent on DNA-PK activity. (A) Representative images of metaphase spreads from cells treated with diluent (0.2% DMSO), 500 nM DNA-PKi, 2.5 μM ABT-888, or both ABT-888 and DNA-PKi for 72 hours. Chromosomal breaks are marked with arrowheads and radial structures are marked with asterisks. (B) Quantitation of data from (A) showing average radial chromosomes per cell (n=100 for each data point pooled from two separate experiments, error bars represent SEM). † indicate values that are zero. (C) Calculated mutagenesis frequency in BRCA2-mutant CAPAN1 cells after control treatment or exposure to ABT-888 with or without 250 nM DNA-PKi. Each bar represents the mean±SEM of 5-8 plates.
HPRT mutagenesis was performed as described elsewhere (Hashimoto et al., Clin. Cancer Res., 1:369-376 (1995)). […] Each sample group was trypsinized, replated at 10^6 cells/100-mm dish in medium E supplemented with 15 μM 6-TG, cultured until colonies were visible (14-21 days), and analyzed manually for colony formation. […] Mutagenesis frequencies were calculated by dividing the number of colonies on 6-TG-treated plates by the total number of possible colonies (10^6 cells×plating efficiency).

| Compound | induction of MMEJ [1] | end-joining of I-SceI-linearized substrate ([2]; PEO1 cells compared to PEO4 cells) | end-joining of HindIII-linearized substrate ([2]; PEO1 cells) | effect of co-administration on PARP inhibitor-induced HPRT mutation frequency [3] |
| --- | --- | --- | --- | --- |
| C[C@]1(c2nc3c(C(N)=O)cccc3[nH]2)CCCN1 [ABT-888] | not detected | significantly increased; also recorded: pronounced increase in end-joining | little effect; also recorded: small increase in end-joining | – |
| CCN1CCN(CC(=O)Nc2ccc(-c3cccc4c(=O)cc(N5CCOCC5)oc34)c3sc4ccccc4c23)CC1 [AZ 12594248] | – | – | – | markedly reduced the mutation frequency |
